# Assay results reported in patent US12409199B2, “Methods of treating endometriosis and other noncancer gynecological disorders with hemp extract” (Ecofibre USA Inc., priority 2021, dated 2025).
# Like-named read-outs stand apart in the source and are kept apart here.
# Assays:
# [1] = test system: stage IV chemoresistant endometrial cancer with metastatic disease; test: Treatment of a patient with stage IV chemoresistant endometrial cancer, PET/CT follow up
# From the text: Soon after the experiments detailed above a person came to us. They were initially diagnosed with endometriosis, and later diagnosed with endometrial cancer after presenting with significant pain and discomfort. They had already undergone a total hysterectomy and bilateral salpingo-oophorectomy followed by five rounds of chemotherapy. Each of the first five rounds of chemotherapy was a combined chemotherapy with Paclitaxil/Carboplatin.
# See, Tables 1 and 2, below. […] As such, […] began standard protocol GemCap treatment in combination with a regime of 30 mg of BSHE twice daily via oral mucosal delivery and 75 mg of FSHE once daily via intravaginal delivery.
# [2] = test system: patient derived organoids; test: Death of patient derived organoids, % of cells that died compared to control (Table 4); format: cell-based, human
# Method: In addition to the agents listed above, several other drugs were tested to see if they influenced organoid growth. […] This is consistent with the patient's actual lack of response to treatment with paclitaxel.
# [3] = test system: organoids crafted from the patient's endometrial cancer; test: Response of organoids crafted from the patient's endometrial cancer to alternative chemotherapies and BSHE; format: cell-based, human
# From the text: See, Tables 1 and 2, below.
# [4] = test system: endometriosis based organoids; test: % viability of endometriosis based organoids (FIG. 6A/6B); format: cell-based, human
# Method: After narrowing down the range in which 50% of endometrial cancer organoids were inhibited from forming in the presence of BSHE, we then turned to other cannabis extracts comprising CBE to determine their efficacy in inhibiting cancerous organoid formation. […] These cannabis extracts were then tested against endometrial based organoids, which confirm the efficacy across the different cells, both in the endometrial cancer based organoids as well as in the endometriosis based organoids.
# FIG. 6B then tests the same endometrial based organoids with a CBDA isolate. Here, slightly higher concentrations were required to reach below 10% viability. […] However, these studies confirm that the efficacy of the CE comprising CBD was conserved over different grades of endometrial cancer and also to endometriosis based organoids.
# [5] = test system: patient derived endometrial cancer cells; test: Patient-derived xenograft (PDX) mice, endometrial cancer tumor volume (FIG. 7); format: in vivo; settings: for decrease in tumor volume compared to starting size: day 14 (6 doses)
# Method: Mouse studies are useful to take cell-based applications and confirm their efficacy in a whole animal system. Furthermore, the mice allow for testing of systemic delivery of the drugs. […] The mice tests were performed according to the protocol in the method section, below.
# Generally, EC stem cells from the same patients that participated in the organoid studies for endometrial cancer, were injected into the mice, and allowed to grow. After tumors reached a certain size, the mice were either injected (3 times/week) with the extract-delivery vehicle or with the particular cannabis extract. After a certain amount of time elapsed, tumor size was measured. The details regarding patient-derived xenograft methodology and experimental protocol are provided in the Methods section.
# The % change is an average number taken from tumor volumes of three mice compared to the starting average tumor volume on day 0 of treatment. Change can either be positive (tumor increases in size) or negative (tumor decreases in size).
# Human patient cells from endometrial cancer were injected subcutaneously into female NOD/SCID gamma mice after resuspending in 100 μL solution. […] Tumor size was measured before treatment, followed by twice a week measurements. All treatment group mice were kept alive for up to 10 weeks after drug injection or until the tumor volume grows bigger than 2500 mm^3.
# Tumor size was measured along with body weight at the time of tissue collection. All tumor tissues were removed carefully from the euthanized mouse body. Tumor tissue samples were kept for histology, proteomics, genomics, and other downstream processing. All downstream processing was completed following NCI Patient-Derived Models Repository SOPs.
# [6] = oral; cited from earlier work
# [7] = cited from earlier work
# non-transformed cells = settings: cited from earlier work
# [8] = test system: organoids derived from ovarian cancer tissue; test: Impact of pH on % viable organoids (FIG. 9)
# [9] = before cannabis extract treatment
molecule,measurement,setting,value
"CCN1CCN(Cc2ccc(Nc3ncc(F)c(-c4cc(F)c5nc(C)n(C(C)C)c5c4)n3)nc2)CC1 [Abemaciclib, reference compound]",adverse effects of earlier therapy,"[1]; human, in vivo",severe adverse effects
5-Fluorouaracil/Capecitabine,% Cell Death,[2],61%
N.N.O=C([O-])C1(C(=O)[O-])CCC1.[Pt+2] [Carboplatin],% Cell Death,[2],30%
gemcitabine/capecitabine [GemCap],response of the patient's organoids,[3],partial response
"C=C(C)[C@@H]1CCC(C)=C[C@H]1c1c(O)cc(CCCCC)c(C(=O)O)c1O [CBDA isolate, cannabidiolic acid]",viability outcome,"[4]; 50 μg/mL, FIG. 6B",complete resolution
same,viability at 15 µg/mL,"[4]; Homo sapiens, 15 μg/mL, FIG. 6B",< 50%
same,viability at 25 µg/mL,"[4]; Homo sapiens, 25 μg/mL, FIG. 6B, <10% is considered 95-100% cell death",< 10%
same,increase in average tumor volume vs day 0,"[5]; 30 mg/kg injected 3 times/week, day 7 (3 doses)",greater than 30%
same,decrease in average tumor volume vs day 0,"[5]; 30 mg/kg injected 3 times/week, day 10",greater than 30%
same,overall decrease in average tumor volume in three days,"[5]; 30 mg/kg, day 7 to day 10",greater than 60%
same,decrease in tumor volume compared to starting size,[5]; 30 mg/kg,70%
same,decrease in average tumor volume,"[5]; 30 mg/kg, day 21 (9 doses)",~100%
Bleomycin,% Cell Death,[2],53%
"C=C(C)[C@@H]1CCC(C)=C[C@H]1c1c(O)cc(CCCCC)cc1O [CBD isolate, cannabidiol]",delayed maximum plasma concentration (time) in some individuals,[6],up to 6 hours
same,potential for abuse or dependence,[7]; WHO 41st Expert Committee on Drug Dependence,no potential for abuse and no potential to produce dependence
same,well tolerated dose,"[7]; chronic use, humans","up to 1,500 mg/day"
same,"effect on physiological parameters (heart rate, blood pressure and body temperature), gastrointestinal transit, psychomotor or psychological functions",[7]; in vivo,does not affect
same,toxicity,non-transformed cells,non-toxic
same,lowest dose at which the organoids are completely treated,"[4]; tested at 0, 1, 2, 3, 4, 5, 7, 10 μg/mL, FIG. 6A",5 µg/mL
same,efficacy compared with native pH,"[8]; 10 μg/mL, pH 8",virtually no change
same,viability at 10 µg/mL,[8]; pH 4,< 1%
same,viability at 10 µg/mL,[8]; read-out: % of viable organoids,~12%
same,tumor response over the 21 days of treatment,[5]; 30 mg/kg injected 3 times/week,not as responsive
same,decrease in tumor volume compared to starting size,[5]; 30 mg/kg,less than 50%
Paclitaxil/Carboplatin [reference compound],clinical outcome of earlier therapy,[1]; [9],ineffective
N.N.[Cl][Pt][Cl] [Cisplatin],% Cell Death,[2],36%
Atezolizumab,adverse effects of earlier therapy,[1]; [9],severe adverse effects
same,clinical outcome of earlier therapy,[1]; [9],failed
O=P1(N(CCCl)CCCl)NCCCO1 (centres unmarked) [Cyclosphosphamide],% Cell Death,[2],32%
